Measurements: patent publication US9145351B2, “Azole derivatives, methods for producing the same, intermediate thereof, agro-horticultural agents” (KUREHA CORPORATION, priority 2009, dated 2015)

Columns and labels:
Penicillium sp. = assay: Plate medium assay, industrial material deteriorating microorganism, Penicillium (Experimental Example 5); assay type: cell-based; conditions: treatment at 50 mg/l, PDA plate medium, read-out: growth inhibition grade
Procedure: (§1) In this Experimental Example, the fungicidal effects of the inventive compounds on various phytopathogenic fungi for plants and hazardous microorganism for industrial materials were examined by the methods described below. Each inventive compound was dissolved in 2 ml of dimethyl sulfoxide. 0.6 ml of this solution was added to 60 nil of a PDA medium (potato dextrose agar medium) at about 60 degrees C., which was mixed thoroughly in a 100-ml conical flask, and poured into a dish, where it was solidified, thereby obtaining a plate medium containing the inventive compound at 50 mg/L and 5 mg/L. On the other hand, a subject microorganism previously cultured on a plate medium was cut out using a cork borer whose diameter was 4 mm, and inoculated to the test compound-containing plate medium described above. […] The growth degree of the microorganism on the test compound-containing plate medium thus observed was compared with the growth degree of the microorganism in the untreated group, and % mycelial growth inhibition was calculated by the following equation. R=100(dc-dt)/dc wherein R=% mycelial extension inhibition, dc=flora diameter in untreated plate, dt=flora diameter in treated plate. The results obtained as described above were evaluated as one of the 5 grades according to the following criteria.

Tyromyces palustris = assay: Plate medium assay, wood denaturing microorganism Oouzuratake (Experimental Example 5); assay type: cell-based; conditions: treatment at 50 mg/l, PDA plate medium; read-out: growth inhibition grade
Procedure: as §1

Septoria tritici [1] = assay: Microplate test of biocidal effect on wheat Septoria blotch (Experimental Example 4); assay type: cell-based; conditions: Zymoseptoria tritici, 240 h; % mycelium growth inhibition, absorbance 550 nm, 20 degrees C. for about 10 days; read-out: activity level (EC80)
Procedure: A spore suspension of wheat Septoria blotch (Septoria tritici) (spore concentration: 1×10^6 cells/ml) was prepared, and subjected to 100-fold dilution with a PD medium. A flat 96-well microplate was provided and 1 microliter of the test compound solution formed by dissolution in dimethyl sulfoxide (DMSO) at a concentration 100 times the test concentration was dispensed to the microplate, and then 100 microliter of the medium containing the spore was added and stirred thoroughly. […] R=100×(dc−dt)/dc: R: % mycelium growth inhibition dc: Absorbance of non-treatment zone dt: Absorbance of treatment zone

Botrytis cinerea = assay: Efficacy test against cucumber gray mold (Experimental Example 1); assay type: in vivo; conditions: 96 h, four days after inoculation, read-out: Protective value; for pest or weed control at 50 µg/mL: 50 mg/L sprayed at 1,000 L/ha; for pest or weed control at 100 µg/mL: 100 mg/L sprayed at 1,000 L/ha
Procedure: Onto a cucumber (variety:SHARP1) plant in its cotyledon phase grown using a square plastic pot (6 cm×6 cm), a wettable formulation such as Formulation Example 1 which was diluted and suspended in water at a certain concentrations (100 mg/L and 50 mg/L) was sprayed at a rate of 1,000 L/ha. The sprayed leaves were air-dried, and loaded with a paper disc (8 mm in diameter) soaked in a spore suspension of Botrytis cinerea, and kept at 20 degrees C. and a high humidity. Four days after inoculation, the cucumber gray mold lesion degree was investigated, and the protective value was calculated by the following equation. Protective value (%)=(1−mean lesion degree in sprayed plot/mean lesion degree in unsprayed plot)×100

Aspergillus sp. = assay: Plate medium assay, industrial material deteriorating microorganism, Aspergillus (Experimental Example 5); assay type: cell-based; conditions: treatment at 50 mg/l, PDA plate medium, read-out: growth inhibition grade
Procedure: as §1

Septoria tritici [2] = assay: Assay for fungicidal effect on Septoria tritici, plate medium 1.25 mg/L (Experimental Example 9); assay type: cell-based; conditions: for inhibition at 1.25 µg/mL: Zymoseptoria tritici, read-out: growth inhibition grade
Procedure: as §1, with “Each” for “In this Experimental Example, the fungicidal effects of the inventive compounds on various phytopathogenic fungi for plants and hazardous microorganism for industrial materials were examined by the methods described below. Each”, “R=100(dc−dt)/dc” for “R=100(dc-dt)/dc”, “criteria. […] In this Experimental Example, the fungicidal effects of the inventive compounds on Septoria tritici were examined by the methods described in the Experimental Example 5. In this Experimental Example, the inventive compounds were diluted at 1.25 mg/L.” for “criteria.”

Puccinia recondita [3] = assay: Efficacy test against wheat brown rust, 1 mg/L (Experimental Example 10); assay type: in vivo; conditions: 1 g/ha (1 mg/L sprayed at 1,000 L/ha)
Trichoderma sp. = assay: Plate medium assay, industrial material deteriorating microorganism, Trichoderma (Experimental Example 5); assay type: cell-based; conditions: treatment at 50 mg/l, PDA plate medium, read-out: growth inhibition grade
Procedure: as §1

Puccinia recondita [4] = assay: Efficacy test against wheat brown rust, 100 mg/L and 10 mg/L (Experimental Example 2); assay type: in vivo; conditions: nine to 14 days after inoculation; for efficacy compared with compound (1): 10 mg/L sprayed at 1,000 L/ha; for pest or weed control at 100 µg/mL: Puccinia recondita, 336 h, 100 mg/L sprayed at 1,000 L/ha, read-out: Protective value
Procedure: Onto a wheat plant (variety: NORIN No. 61) grown to the two-leaf phase using a square plastic pot (6 cm×6 cm), a wettable formulation such as Formulation Example 1 which was diluted and suspended in water at a certain concentration (100 mg/L and 10 mg/L) was sprayed at a rate of 1,000 L/ha. The sprayed leaves were air-dried, and inoculated with spore suspension of Puccinia recondita (adjusted at 200 spores/vision, […] was added at 60 ppm) by spraying, and kept at 25 degrees C. and a high humidity for 48 hours. Thereafter, the plant was kept in a greenhouse. Nine to 14 days after inoculation, the wheat brown rust lesion degree was investigated, and the protective value was calculated by the following equation. Protective value (%)=(1-lesion degree in sprayed plot/lesion degree in unsprayed plot)×100

Mucor sp. = assay: Plate medium assay, industrial material deteriorating microorganism, Mucor (Experimental Example 5); assay type: cell-based; conditions: treatment at 50 mg/l, PDA plate medium, read-out: growth inhibition grade
Procedure: as §1

Fusarium graminearum = assay: whole plant or invertebrate; assay type: in vivo; conditions: in Triticum aestivum, 168 h, read-out: Protective value
Septoria tritici [5] = assay: Assay for fungicidal effect on Septoria tritici, plate medium 0.02 mg/L (Experimental Example 7); assay type: cell-based; conditions: Zymoseptoria tritici, read-out: grade (growth inhibition grade)
Text: In this Experimental Example, the fungicidal effects of the inventive compounds on a phytopathogenic fungi, Septoria tritici were examined and compared to the Comparative Compound (3) described in Patent Literature 1 (JPA01-93574) by the methods described below. […] The subject microorganism previously cultured on a plate medium was cut out using a cork borer whose diameter was 4 mm, and inoculated to the test compound-containing plate medium described above. […] The growth degree of the microorganism on the test compound-containing plate medium thus observed was compared with the growth degree of the microorganism in the untreated group, and % mycelial growth inhibition was calculated by the following equation. R=100(dc−dt)/dc wherein R=% mycelial extension inhibition, dc=flora diameter in untreated plate, dt=flora diameter in treated plate. The results obtained as described above were evaluated as one of the 5 grades according to the following criteria. <Growth Inhibition Grade> […]

| SMILES | inhibition at 50 µg/mL (Penicillium sp.) | inhibition at 50 µg/mL (Tyromyces palustris) | EC80 (Septoria tritici [1]) | pest or weed control at 50 µg/mL (Botrytis cinerea) | pest or weed control at 100 µg/mL (Botrytis cinerea) | inhibition at 50 µg/mL (Aspergillus sp.) | inhibition at 1.25 µg/mL (Septoria tritici [2]) | lesion degree (Puccinia recondita [3]) | inhibition at 50 µg/mL (Trichoderma sp.) | efficacy compared with compound (1) (Puccinia recondita [4]) | pest or weed control at 100 µg/mL (Puccinia recondita [4]) | inhibition at 50 µg/mL (Mucor sp.) | pest or weed control at 100 µg/mL (Fusarium graminearum) | pest or weed control at 500 µg/mL (Fusarium graminearum) | growth inhibition grade (Septoria tritici [2]) | inhibition at 0.02 µg/mL (Septoria tritici [5]) |
| --- | --- | --- | --- | --- | --- | --- | --- | --- | --- | --- | --- | --- | --- | --- | --- | --- |
| C[C@]1(CCl)CC[C@@H](Cc2ccc(Cl)cc2)[C@]1(O)Cn1cncn1 (racemic) [Compound I-1, (1RS,2SR,5SR)-5-(4-chlorobenzyl)-2-chloromethyl-2-methyl-1-(1H-1,2,4-triazol-1-ylmethyl)cyclopentanol] | 60 to 80% | 60 to 80% | ≤ 0.2 µg/mL | ≥ 80% | ≥ 80% | 60 to 80% | > 80% | 0.5 (Less than 1%) | 60 to 80% | higher efficacy than that of compound (1) | ≥ 90% | 60 to 80% | ≥ 80% | ≥ 90% |  |  |
| C[C@]1(CCl)CC[C@@H](Cc2ccc(F)cc2F)[C@]1(O)Cn1cncn1 (relative stereo) [Compound I-88] |  |  |  |  |  |  |  | 0.5 (Less than 1%) |  | higher efficacy than that of compound (1) |  |  |  |  | 5 (% Mycerial growth inhibition of 80% or higher) |  |
| C[C@]1(CCl)CC[C@@H](Cc2ccccc2)[C@]1(O)Cn1cncn1 (racemic) [Compound I-73, (1RS,2SR,5SR)-2-chloromethyl-5-benzyl-2-methyl-1-(1H-1,2,4-triazol-1-ylmethyl)cyclopentanol] | 60 to 80% | 60 to 80% | ≤ 0.2 µg/mL | ≥ 80% | ≥ 80% | 60 to 80% | > 80% | 0.5 (Less than 1%) | 60 to 80% | higher efficacy than that of compound (1) | ≥ 90% | 60 to 80% | ≥ 80% | ≥ 90% |  | > 80% |
| CC(Cl)=C[C@@]1(C)CC[C@@H](Cc2ccc(Cl)cc2)[C@]1(O)Cn1cncn1 (racemic) [Compound I-15, (1RS,2RS,5SR)-5-(4-chlorobenzyl)-2-(2-chloropropenyl)-2-methyl-1-(1H-1,2,4-triazol-1-ylmethyl)cyclopentanol] | 60 to 80% | 60 to 80% | ≤ 0.2 µg/mL | ≥ 80% | ≥ 80% | 60 to 80% |  |  | 60 to 80% | higher efficacy than that of compound (1) | ≥ 90% | 60 to 80% |  | ≥ 90% |  |  |
| C[C@@]1(CCCl)CC[C@@H](Cc2ccc(Cl)cc2)[C@]1(O)Cn1cncn1 (racemic) [Compound I-104, (1RS,2SR,5SR)-5-(4-chlorobenzyl)-2-(2-chloroethyl)-2-methyl-1-(1H-1,2,4-triazol-1-ylmethyl)cyclopentanol] | 60 to 80% | 60 to 80% | ≤ 0.2 µg/mL | ≥ 80% | ≥ 80% | 60 to 80% |  |  | 60 to 80% | higher efficacy than that of compound (1) | ≥ 90% | 60 to 80% | ≥ 80% | ≥ 90% |  |  |
| CC1(C)CCC(Cc2ccc(Cl)cc2)C1(O)Cn1ncnc1S (racemic) [compound (2)] |  |  |  |  |  |  |  | 5 (50% or higher) |  |  |  |  |  |  | 1 (% Mycerial growth inhibition of less than 20%) |  |
| C[C@]1(CCl)CC[C@@H](Cc2ccc(F)cc2)[C@]1(O)Cn1cncn1 (racemic) [Compound I-77, (1RS,2SR,5SR)-2-chloromethyl-5-(4-fluorobenzyl)-2-methyl-1-(1H-1,2,4-triazol-1-ylmethyl)cyclopentanol] | 60 to 80% | 60 to 80% | ≤ 0.2 µg/mL | ≥ 80% | ≥ 80% | 60 to 80% | > 80% | 0.5 (Less than 1%) | 60 to 80% | higher efficacy than that of compound (1) | ≥ 90% | 60 to 80% | ≥ 80% | ≥ 90% |  | > 80% |
| C[C@]1(CCl)CC[C@@H](Cc2cccc(Cl)c2)[C@]1(O)Cn1cncn1 (racemic) [Compound I-74, (1RS,2SR,5SR)-5-(3-chlorobenzyl)-2-chloromethyl-2-methyl-1-(1H-1,2,4-triazol-1-ylmethyl)cyclopentanol] | 60 to 80% | 60 to 80% | ≤ 0.2 µg/mL | ≥ 80% | ≥ 80% | 60 to 80% |  |  | 60 to 80% | higher efficacy than that of compound (1) | ≥ 90% | 60 to 80% | ≥ 80% | ≥ 90% |  |  |
